Test results taken from US4542137A, “Alkylaminodesoxy-1.4;3.6-dianhydrohexitol nitrates substituted by purine bases and pharmaceutical compositions” (priority 1980, dated 1985).
Where two headings read alike, the source gives them in different places.

Legend:
[1] = tested on: isolated rat aorta preparations; test: spasmolytic effectiveness on isolated rat aorta preparations (noradrenaline- and potassium chloride-induced contractions)
[2] = tested on: isolated guinea pig hearts; test: coronary flowthrough-increasing effectiveness on isolated guinea pig hearts according to Langendorff; details: Cavia porcellus, 25 μg/ml in tyrode solution, Langendorff heart; for activation at 25 µg/mL: read-out: flowthrough (coronary), percentage change in comparison with the initial value
Method: After achieving the stationary state in the 30th minute, the hearts were each infused with 50 ml. tyrode solution with a content of test substance of, in each case, 25 μg./ml. Each test substance was tested on 3-6 hearts.
In each case, there was measured the inotropism, the flowthrough and the frequency, whereby the values given in Table I are average values of the percentage changes in comparison with the starting values.

[3] = read-out: ED50 for spasmolytic action, Noradrenaline spasm (50% inhibition)
[4] = read-out: ED50 for spasmolytic action, potassium chloride spasm (50% inhibition)
[5] = read-out: frequency, percentage change in comparison with the initial value
[6] = read-out: inotropism, percentage change in comparison with the initial value

Question: With `Cn1c(=O)c2c(ncn2CCCN[C@H]2CO[C@H]3[C@@H]2OC[C@@H]3O[N+](=O)[O-])n(C)c1=O` [Example 1d, 5-(3-Theophyllin-7-ylpropyl)-amino-5-desoxy-1.4;3.6-dianhydro-L-iditol 2-nitrate] as the molecule, how does the IC50 [1, 3] read?
Answer: Its IC50 is 0.56 µM.

Question: What about the IC50 [1, 4] of the same molecule?
Answer: The IC50 was 2.9 µM.

Question: And the activation at 25 µg/mL [2]?
Answer: The activation at 25 µg/mL was 56.4%.

Question: What about the inhibition at 25 µg/mL [2, 5] of the same molecule?
Answer: Its inhibition at 25 µg/mL is 1.95%.

Question: And the inhibition at 25 µg/mL [2, 6]?
Answer: The inhibition at 25 µg/mL was 1.29%.

Question: What does the source list for `CN(CCCn1cnc2c1c(=O)n(C)c(=O)n2C)[C@H]1CO[C@H]2[C@@H]1OC[C@@H]2O[N+](=O)[O-]` [Example 9c, 5-[N-Methyl-N-(3-theophyllin-7-ylpropyl)-amino]-5-desoxy-1.4;3.6-dianhydro-L-iditol 2-nitrate]?
Answer: IC50 [1, 3]: 2.95 µM; IC50 [1, 4]: 45.9 µM; activation at 25 µg/mL [2]: 40.5%; percent change from initial value at 25 µg/mL [2, 5]: 0%; inhibition at 25 µg/mL [2, 6]: 4.3%
